Laboratory results from ChEMBL document CHEMBL1149305, “Charge and substituent effects on affinity and metabolism of benzbromarone-based CYP2C19 inhibitors” (J Med Chem, 2004).

Columns and labels:
Cytochrome P450 2C19 = Cytochrome P450 2C19 (Homo sapiens, UniProt P33261); assay: Inhibition of human CYP2C19; type: ADME
[1] = Dissociation constant, pKa of the compound; type: physicochemical
Cytochrome P450 2C9 = Cytochrome P450 2C9 (Homo sapiens, UniProt P11712); assay: Inhibition of human CYP2C9
Chain of Cytochrome P450 2C9 (P11712 whole entry): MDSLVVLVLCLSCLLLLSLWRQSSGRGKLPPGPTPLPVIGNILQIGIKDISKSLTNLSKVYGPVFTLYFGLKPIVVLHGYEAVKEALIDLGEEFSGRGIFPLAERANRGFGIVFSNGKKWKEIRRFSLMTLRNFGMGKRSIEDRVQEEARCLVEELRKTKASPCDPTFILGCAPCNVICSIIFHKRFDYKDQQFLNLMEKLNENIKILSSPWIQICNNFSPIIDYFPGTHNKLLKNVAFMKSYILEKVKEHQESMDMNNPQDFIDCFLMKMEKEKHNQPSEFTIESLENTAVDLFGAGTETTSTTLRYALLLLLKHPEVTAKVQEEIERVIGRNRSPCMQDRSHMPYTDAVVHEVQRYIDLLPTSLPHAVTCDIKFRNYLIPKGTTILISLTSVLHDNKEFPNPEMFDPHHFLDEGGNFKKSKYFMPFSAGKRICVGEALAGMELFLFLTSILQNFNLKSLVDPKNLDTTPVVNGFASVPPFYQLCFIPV

Chain of Cytochrome P450 2C19 (P33261 whole entry): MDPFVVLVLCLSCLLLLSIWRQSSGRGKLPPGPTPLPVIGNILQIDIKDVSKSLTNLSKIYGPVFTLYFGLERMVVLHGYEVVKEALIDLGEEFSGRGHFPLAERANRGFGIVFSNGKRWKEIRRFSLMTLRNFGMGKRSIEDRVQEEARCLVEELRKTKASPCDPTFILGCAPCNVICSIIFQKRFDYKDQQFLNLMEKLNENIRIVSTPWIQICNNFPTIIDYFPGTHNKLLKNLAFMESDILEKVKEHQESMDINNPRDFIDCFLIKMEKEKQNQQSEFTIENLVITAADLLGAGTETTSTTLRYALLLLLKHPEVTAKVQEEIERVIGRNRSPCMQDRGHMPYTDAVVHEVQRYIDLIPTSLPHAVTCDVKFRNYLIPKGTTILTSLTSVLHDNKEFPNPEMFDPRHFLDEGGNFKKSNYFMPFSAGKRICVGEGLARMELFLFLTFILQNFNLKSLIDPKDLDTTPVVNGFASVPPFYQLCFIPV

| SMILES | Ki (Cytochrome P450 2C19) [µM] | pKa [1] | Activity [1] | Ki (Cytochrome P450 2C9) [µM] |
| --- | --- | --- | --- | --- |
| CCc1oc2ccccc2c1C(O)c1cc(Br)c(O)c(Br)c1 (configuration not stated) | 0.3 | 8.8 |  |  |
| CCc1oc2ccccc2c1C(=O)c1cc(C)c(OC)c(C)c1 | 0.25 |  | Not Active |  |
| CCc1oc2ccccc2c1C(=O)c1cc(C)c(O)c(C)c1 | 0.033 | 8.5 |  | 0.04 |
| CCc1oc2ccccc2c1C(=O)c1ccc(N(C)C)cc1 | 3.7 |  | Not Active |  |
| Cc1oc2ccccc2c1C(=O)c1cccc(O)c1 | 4.5 | 8.4 |  |  |
| Cc1oc2ccccc2c1C(=O)c1cc(I)c(O)c(I)c1 | 7.2 | 5.2 |  |  |

The next lines start with results.

| Ki (Cytochrome P450 2C19) [µM] | pKa [1] | Activity [1] | SMILES | Ki (Cytochrome P450 2C9) [µM] |
| --- | --- | --- | --- | --- |
| 2.4 |  |  | Cc1oc2ccccc2c1C(=O)c1cc(Br)c(O)c(Br)c1 |  |
| 13 |  | Not Active | CCc1oc2ccccc2c1C(=O)c1cc(Cl)nc(Cl)c1 |  |
| 4.5 |  | Not Active | COc1ccc(C(=O)c2c(C)oc3ccccc23)cc1 |  |
| 2.5 | 8.4 |  | Cc1oc2ccccc2c1C(=O)c1ccc(O)cc1 |  |
| 1.6 | 8.6 |  | CCc1oc2ccccc2c1C(=O)Cc1cc(Br)c(O)c(Br)c1 |  |
| 13 |  | Not Active | Cc1oc2ccccc2c1C(=O)C1CCCCC1 |  |
| 0.37 |  | Not Active | CCc1oc2ccccc2c1C(=O)c1cc(Br)c(OC)c(Br)c1 |  |
|  | 4.5 |  | CCc1oc2ccccc2c1C(=O)c1cc(Br)c(O)c(Br)c1 [BENZBROMARONE] |  |
